# In patent EP4458804A1, “METHOD FOR PRODUCING AN OBJECT, PHENALEN-1-ONE COMPOUND AND USE THEREOF” (TriOptoTec GmbH, priority 2023, dated 2024):
# Assays:
# S.aureus ATCC 6538 [1] = assay: Antibacterial activity of impregnated films, modified ISO 22196 with illumination (Beispiele 11-16, 25); type: cell-based
# Excerpt: (§1) Die Bestimmung der antimikrobiellen Aktivität erfolgte nach einer modifizierten Version der ISO 22196:2011-08 ("Messung von antibakterieller Aktivität auf Kunststoff- und anderen porenfreien Oberflächen", Ausgabedatum: 2011-08).
# (§2) Bei der Testdurchführung wurde ein dünner Flüssigkeitsfilm, in dem die Bakterien enthalten sind (1,25 x 10^4 /cm^2), direkt auf die Probenkörper (3 x 3 cm) aufgebracht. Direkt nach Beimpfung wurden von der Nullprobe die Bakterien von den Probenkörperoberflächen mittels Ultraschall und Vortexen abgelöst und die Keimzahl (KBE (engl. CFU), Kolonie-bildende Einheit) bestimmt (t0-Wert).
# (§3) Nach 4h wurden überlebende Bakterien von den Probenkörperoberflächen mittels Ultraschall und Vortexen abgelöst und die Keimzahl bestimmt (t4-Wert).
# (§4) Im Unterschied zu der in der ISO 22196:2011-08 beschreibenen Methode wurde das Inokulum nicht mit einer Folie abgedeckt und die Inkubationszeit wurde von 24 auf 4 Stunden reduziert. Weiterhin wurden die Probenkörper der Proben 3 und 4 mit Licht der Intensität 20mW/cm2 für 10min belichtet, um eine biozide Wirkung nach Bestrahlung mit elektromagnetischer Strahlung zu bestimmen.
# Verwendet wurden TPU Folienstücke, die nach dem in Beispiel 4 beschriebenen Verfahren mit Rezeptur 1 behandelt wurden. Rezeptur 1 wurde hergestellt nach Beispiel 2. […] Der Test wurde in Anlehnung an ISO 22196 nach oben beschriebener Methode durchgeführt.
# TPU-Folienstücke wurden ebenfalls nach dem in Beispiel 4 beschriebenen Verfahren mit verschiedenen Rezepturen behandelt, die gemäß Beispiel 2 hergestellt wurden. Die Farbstoffkonzentration in der Imprägnierlösung betrug jeweils 1 mM F-24b. Der Test wurde in Anlehnung an ISO 22196 nach oben beschriebener Methode durchgeführt.
# Die Farbstoffkonzentration in der Imprägnierlösung betrug jeweils 1 mM.
# Die Photokatalysator-Konzentration von F-24b wurde variiert.
# Es wurde ein Bakterientest in Anlehnung an ISO 22196 nach oben beschriebener Methode durchgeführt.
# [2] = Leaching stress test B following DIN EN 16105, nine immersion cycles (Beispiel 10 B); type: physicochemical; details: Immersion test B (DIN EN 16105), medium Wasser, plastic TPU, Rezeptur 1 nach Beispiel 1
# Protocol: Der Test wurde in Anlehnung an die DIN EN 16105:2011-12 ("[…] zur Bestimmung der Freisetzung von Substanzen aus Beschichtungen in intermittierendem […] unter A) beschrieben erzeugt. Es wurde vollentsalztes Wasser mit einem pH-Wert von (6 ± 1) und einer Wassertemperatur von (22 ± 3) °C verwendet. Beim Test wurden jeweils neun Tauchzyklen durchgeführt. […] Die erforderliche Wassermenge (z. B. 250 mL pro 100 cm2) musste hinzugefügt werden. Für jedes Eintauchen wurde frisches deionisiertes Wasser verwendet. Jeder Probekörper wurde in […]. Die […] so […] von Wasser mit der untersuchten Oberfläche möglich war. Der Tauchbehälter wurde dabei abgedeckt, um ein Verdunsten von Wasser während des Eintauchens zu […]. Der Überschuss wird direkt im UV-VIS-Spektrometer vermessen, vor dem ersten Immersionszyklus und nach Zyklen 1, 3, 5, 7 und 9. Die Ausgangswerte (Absorptionsmaximum des jeweiligen […] dabei zwischen 0,05 A.U. und 1,00 A.U. liegen. Die […] Immersionstest B
# S.aureus ATCC 6538 [3] = assay: Antibacterial activity of impregnated films, modified ISO 22196 with illumination (Beispiele 11-16, 25); type: cell-based; details: Beispiel 14; TPU film; Rezeptur 1 (nach Beispiel 1); 1 mM photocatalyst in impregnation solution; light 20mW/cm2 10min
# S. aureus [4] = assay: Bactericidal effect after leaching/washing stress B and C (Beispiel 18), modified ISO 22196; type: cell-based; details: TPU film, Rezeptur 1, 1 mM
# Excerpt: as §1, §2, §3, §4
# Um die Haltbarkeit des Photokatalysators innerhalb der Folie bzw. dessen Auswaschen gegen gängige Reinigungsmittel zu untersuchen, wurden damit Immersionstest in Wasser und 70% Isopropanol durchgeführt.
# Die Folien wurden anschließend mit dem unter B) und C) beschrieben Belastungsverfahren mit den in den Tabellen gezeigten Medien behandelt und in ihrer Wirksamkeit vor/nach Belastung verglichen.
# [5] = Two-component system (kit of parts): impregnation of TPU films, visual colouring and resistance to rubbing/washing (Beispiel 6a/6b); type: physicochemical; details: TPU Folien; 2K-System Beispiel 6a (Aceton/Isopropanol)
# Excerpt: Um eine Mehrkomponenten-System bereitzustellen, bei dem vorzugsweise flüchtigere Hilfskomponenten, die gegebenenfalls regelmäßiger im Prozess ergänzt werden müssen, in einer separaten Komponente bereitgestellt werden können, wurde zunächst folgendes 2K-System getestet.
# Grundkomponente (A): Eine Mischung aus 40,0% w/w Aceton, 30,0% w/w Isopropanol und […] w/w Wasser wurden homogen vermengt. Die Mischung war dicht verschlossen > 12 Monate bei Raumtemperatur lagerbar.
# Zusatzkomponente (B): Eine Mischung aus 3,0% w/w Phenoxyethanol, 3,0% w/w EDTA und 0,1 bis 2,0 % Photokatalysator in Wasser wurden homogen verrührt. Die Mischung war dicht verschlossen in dunklen Flaschen > 6 Monate bei Raumtemperatur lagerbar.
# Beide Lösungen wurden vor dem Prozess zu gleichen Teilen gemischt, gefolgt von einer 1:5 Verdünnung mit Wasser. Nach guter Durchmischung war die Lösung gebrauchsfertig.
# Bei F-64a und F-73 war eine schwache Gelb- bzw.
# Grundkomponente (A) enthielt eine Mischung aus 30,0% w/w Dimethylsuccinat, 33,0% w/w 1,2-Propandiol, 12,0% w/w Tween 20 und 25,0 % Wasser.
# Zusatzkomponente (B) enthielt eine Mischung aus 2,0 Gew.-% Phenoxyethanol, 2,0 Gew.-% EDTA und 0,1 Gew.-% bis 1,6 Gew.-% Photokatalysator, jeweils bezogen auf das Gesamtgewicht der Zusatzkomponente (B), wobei die entsprechenden Bestandteile in Wasser gelöst wurden und anschließend homogen verrührt wurden.
# Die Komponenten wurden vor Gebrauch im Verhältnis A zu B 2:1 gemischt, gefolgt von einer 1:1 Verdünnung mit Wasser. Nach guter Durchmischung war die Lösung gebrauchsfertig.
# S. aureus [6] = assay: Bactericidal effect after tempering (Beispiel 19), modified ISO 22196; type: cell-based; details: TPU film, Rezeptur 1, 1 mM
# Excerpt: as §1, §2, §3, §4
# Weiterhin wurde die Belastbarkeit des Photokatalysators in der Folie mit zusätzlichen Tests wie Tempern bei 80°C und Dampfsterilisation bei 121°C untersucht. […]
compound,measurement,setting,value
CC(C)(O)c1cc[n+](CC2=Cc3cccc4cccc(c34)C2=O)cc1 [F-24b],Log10 Reduktion Hauptprobe,"S.aureus ATCC 6538 [1]; Beispiel 13, TPU film, Rezeptur 1 nach Beispiel 2, 1 mM in impregnation solution, light 20mW/cm2 10min","4,0 ± 0,3 log10"
same,Log10 Reduktion Hauptprobe,"S.aureus ATCC 6538 [1]; Beispiel 13, TPU film, Rezeptur 2 nach Beispiel 2, 1 mM in impregnation solution, light 20mW/cm2 10min","1,8 ± 1,3 log10"
same,Log10 Reduktion Hauptprobe,"S.aureus ATCC 6538 [1]; Beispiel 13, TPU film, Rezeptur 3 nach Beispiel 2, 1 mM in impregnation solution, light 20mW/cm2 10min","4,2 ± 0,8 log10"
same,Log10 Reduktion Hauptprobe,"S.aureus ATCC 6538 [1]; Beispiel 13, TPU film, Rezeptur 8 nach Beispiel 3, 1 mM in impregnation solution, light 20mW/cm2 10min","3,5 ± 0,5 log10"
same,Log10 Reduktion Hauptprobe,"S.aureus ATCC 6538 [1]; Beispiel 15, TPU film, Rezeptur 1, photocatalyst concentration 0,5 mM","2,5 ± 1,4 log10"
same,Log10 Reduktion Hauptprobe,"S.aureus ATCC 6538 [1]; Beispiel 15, TPU film, Rezeptur 1, photocatalyst concentration 0,25 mM","2,8 ± 1,3 log10"
same,Log10 Reduktion Hauptprobe,"S.aureus ATCC 6538 [1]; Beispiel 15, TPU film, Rezeptur 1, photocatalyst concentration 1 mM","3,5 ± 0,5 log10"
same,Log10 Reduktion Hauptprobe,"S.aureus ATCC 6538 [1]; Beispiel 16, film material CPI (Polyimid), Rezeptur 1, 1 mM","3,0 ± 0,1 log10"
same,Log10 Reduktion Hauptprobe,"S.aureus ATCC 6538 [1]; Beispiel 16, film material Nitril, Rezeptur 1, 1 mM","3,8 ± 0,3 log10"
same,Log10 Reduktion Hauptprobe,"S.aureus ATCC 6538 [1]; Beispiel 16, film material PET-G, Rezeptur 1, 1 mM","4,0 ± 0,1 log10"
same,Log10 Reduktion Hauptprobe,"S.aureus ATCC 6538 [1]; Beispiel 16, film material PVC, Rezeptur 1, 1 mM","3,9 ± 0,8 log10"
same,Log10 Reduktion Hauptprobe,"S.aureus ATCC 6538 [1]; Beispiel 16, film material Silikon, Rezeptur 1, 1 mM","3,4 ± 0,1 log10"
same,Log10 Reduktion Hauptprobe,"S.aureus ATCC 6538 [1]; Beispiel 16, film material Surlyn, Rezeptur 1, 1 mM","3,6 ± 0,5 log10"
same,Log10 Reduktion Hauptprobe,"S.aureus ATCC 6538 [1]; Beispiel 16, film material TPU, Rezeptur 1, 1 mM","4,0 ± 0,3 log10"
same,Log10 Reduktion Hauptprobe,"S.aureus ATCC 6538 [1]; TPU Folie, Rezeptur 1, 1 mM F-24b, Licht 20mW/cm2 für 10min, Gram-positiv","4,0 ± 0,3 log10"
same,Abs. nach Auswaschen,[2],"0,006"
same,Berechneter Verlust in %,[2],"4,9%"
same,Log10 Reduktion Hauptprobe,S.aureus ATCC 6538 [3],"4,0 ± 0,3 log10"
same,Log10 Reduktion Hauptprobe,"S. aureus [4]; After Auswaschen nach DIN EN 16105, procedure B), Wasser (dest.)","1,9 ± 0,5 log10"
same,Log10 Reduktion Hauptprobe,"S. aureus [4]; After Screening Test - Immersion, procedure A), 70% Isopropanol","1,9 ± 0,6 log10"
same,Log10 Reduktion Hauptprobe,"S. aureus [4]; After Screening Test - Immersion, procedure A), Wasser (dest.)","3,3 ± 0,7 log10"
same,Log10 Reduktion Hauptprobe,"S. aureus [4]; After Washability nach DIN EN ISO 11998, procedure C), cleaner Neutraldesinfizierend","4,5 ± 0,6 log10"
same,Log10 Reduktion Hauptprobe,"S. aureus [4]; After Washability nach DIN EN ISO 11998, procedure C), cleaner Sauer-oxidierend","4,8 ± 0,3 log10"
same,Imprägnierung / Färbung der Folie,[5],mit den vorherigen Daten vergleichbar
same,Log10 Reduktion Hauptprobe,S. aureus [6]; After 1 Woche 80°C Tempern,"3,0 ± 1,1 log10"
same,Log10 Reduktion Hauptprobe,S. aureus [6]; After 1 h 80 °C Tempern,"4,1 ± 0,1 log10"
